{
  "source": "patent US20260096556A1",
  "about": "“AGRICULTURAL METHODS” (priority 2022, published 2026)",
  "tested_on": "Phakopsora pachyrhizi",
  "assay": "Field trials: foliar spray on soybean plants, severity of infection from Phakopsora pachyrhizi",
  "assay_type": "in vivo",
  "settings": "for % control (% reduction of the area under the disease pressure curve): Brazil, soybean, 3 foliar applications, 75 g ai/ha",
  "description": "Various compounds were formulated (a commercial EC250 formulation for prothioconazole, an SC100 formulation for compound X.04), diluted into a spray solution including an adjuvant, and applied to soybean plants in a foliar broadcast spray using a handheld horizontal boom sprayer. Three applications were made over the course of the growing season, starting approximately 45 days after crop emergence, with following applications at approximately 14 day intervals. Trials were conducted across five locations in Brazil.\nAssessments of severity of infection from Phakopsora pachyrhizi were made at approximately weekly intervals, based on the percentage of leaf area covered by disease lesions. This is expressed in {Table B1} as a final % severity. The performance of the treatments were calculated as % reduction of the area under the disease pressure curve for the treated plots in the trial, based on assessments up to 28 days after the third application. Samples were taken from diseased leaves in the untreated plots and evaluated for the % population frequency of the F129L mutation that generates resistance to strobilurin fungicides.\nSamples of leaves were taken from the untreated plots and DNA extracted from disease lesions. qPCR analysis was conducted to determine the frequency of F129L within the sampled pathogen population.",
  "key": {"[1]": {"settings": "Trial A, F129L frequency in untreated 94.33%, untreated severity 97.50%"}, "[2]": {"settings": "Trial B, F129L frequency in untreated 93.67%, untreated severity 83.10%"}, "[3]": {"settings": "Trial C, F129L frequency in untreated 93.00%, untreated severity 96.80%"}, "[4]": {"settings": "Trial D, F129L frequency in untreated 22.00%, untreated severity 74.2%"}, "[5]": {"settings": "Trial E, F129L frequency in untreated 44.67%, untreated severity 95.00%"}},
  "data": [
    {"molecule": "CO/C=C(\\Oc1cc(C2CCCCC2)ccc1C)C(=O)OC", "note": "[compound X.04, methyl (Z)-2-(5-cyclohexyl-2-methyl-phenoxy)-3-methoxy-prop-2-enoate]", "values": [
      {"measurement": "% control (% reduction of the area under the disease pressure curve)", "setting": "[1]", "value": 91.00, "unit": "%"},
      {"measurement": "% control (% reduction of the area under the disease pressure curve)", "setting": "[2]", "value": 45.50, "unit": "%"},
      {"measurement": "% control (% reduction of the area under the disease pressure curve)", "setting": "[3]", "value": 95.46, "unit": "%"},
      {"measurement": "% control (% reduction of the area under the disease pressure curve)", "setting": "[4]", "value": 71.39, "unit": "%"},
      {"measurement": "% control (% reduction of the area under the disease pressure curve)", "setting": "[5]", "value": 63.48, "unit": "%"},
      {"measurement": "performance compared to prothioconazole and to a commercial standard containing prothioconazole and a standard strobilurin fungicide", "setting": "trials with a high (>90%) frequency of F129L in the untreated population", "value": "superior"}
    ]},
    {"molecule": "OC(Cc1ccccc1Cl)(Cn1nc[nH]c1=S)C1(Cl)CC1", "note": "(centres unmarked) [prothioconazole, reference compound]", "values": [
      {"measurement": "% control (% reduction of the area under the disease pressure curve)", "setting": "[1]", "value": 72.66, "unit": "%"},
      {"measurement": "% control (% reduction of the area under the disease pressure curve)", "setting": "[2]", "value": 28.86, "unit": "%"},
      {"measurement": "% control (% reduction of the area under the disease pressure curve)", "setting": "[3]", "value": 63.89, "unit": "%"},
      {"measurement": "% control (% reduction of the area under the disease pressure curve)", "setting": "[4]", "value": 72.53, "unit": "%"},
      {"measurement": "% control (% reduction of the area under the disease pressure curve)", "setting": "[5]", "value": 67.30, "unit": "%"}
    ]}
  ]
}
